From US11485701B2, “Insect repellent compounds and compositions, and methods thereof” (Iowa State University Research Foundation, Inc., priority 2016, dated 2022)

Legend:
Format in all cases: in vivo
[1] = test system: female Aedes aegypti (Orlando strain, 1952); assay: Minimum effective dosage testing, human skin (treated cloth patch); conditions: for Minimum Effective Dosage, Subject 3 / Minimum Effective Dosage, Subject 1 / Minimum Effective Dosage, Subject 2: treated cloth patch, 1 min test, high dose 1.5 mg/cm^2; for Proportion to DEET: average MED relative to DEET; for Minimum Effective Dosage, Average: mean across subjects
Experimental: The test mosquitoes were female Aedes aegypti (Orlando strain, 1952) from the colony maintained at United States Department of Agriculture-Agricultural Research Service-Center for Medical, Agricultural and Veterinary Entomology (USDA-ARS-CMAVE) in Gainesville, Fla. Pupae were obtained from the colony and newly emerged mosquitoes were maintained on 10% sugar water and kept in laboratory cages at an ambient temperature of 28±1° C. and RH of 35-60%. Host seeking behavior was pre-selected in nulliparous female mosquitoes aged 6-10 days, indicated by flight upwind towards a potential host, from stock cages using a hand-draw box and trapped in a collection trap.
After 500 (±10%) females were collected in the trap, they were transferred to a test cage (approximately 59,000 cm^3 with dimensions 45×37.5×35 cm) and allowed to acclimatize for 17.5 (±2.5) min before testing was initiated. Just prior to the experiment, the pieces of treated cloth are removed from the vials and stapled onto card stock tabs (5×3 cm). Each piece of the cards and the assembly were hung on a drying rack using masking tape for 3-5 min. Participants in the study used latex gloves to pull a nylon stocking over their arm. A Velcro™-sealed vinyl sleeve was then placed over the forearm. […] The purpose of the nylon stocking was to produce a barrier between the dried cloth and the skin, thereby avoiding direct contact of chemical to skin. The dried cloth assembly was affixed over the opening in the sleeve and held in place with masking tape. Participants then inserted their arm with the sleeve and patch into a screened cage that contained female Ae. Aegypti mosquitoes. Tests were conducted on each control or treated patch for 1 min. A control patch (acetone solvent only, then dried) was tested prior to the start of experiments and evaluation of the same untreated control patch after every 10 tests. If 5 landings were not received on the control patch in 30 s, then tests were discontinued for 60 min. At the conclusion of testing the control patch was tested again. If five landings were not received within 30 s, the data for the replicate was discarded. When testing a patch treated with a candidate repellent, if approximately 1% or 5 mosquito bites were received during this one minute test, this compound was considered to have failed, i.e., was not repellent at that concentration. If a treated cloth patch received 0-4 bites within a minute, then it was considered as passed, i.e., repellent at that concentration of the test compound. The median concentration patch was tested in the first round and treated patches were then tested successively at higher or lower concentrations depending upon whether the previous patch failed or passed, respectively.
The time interval between each tested patch was <90 seconds until 10 successive tests had been conducted. If appreciable, mortality had occurred during testing, the number of knocked down mosquitoes are estimated and additional female mosquitoes are added to the cage to keep the available mosquitoes at approximately 500. The estimate of the MED was the lowest concentration that passed for each candidate. Observed MED values for each candidate compound were averaged across participants and reported as a mean MED±standard error.

[2] = test system: Northern house mosquitoes (Culex pipiens); assay: Long-term spatial repellency, static air repellency chamber, filter papers air-dried 5 hours; conditions: for pest or weed control at 0.5 %: Culex pipiens
Experimental: (§1) Northern house mosquitoes (Culex pipiens), a primary carrier of West Nile virus in eastern North America, were obtained from an established colony in the Medical Entomology Laboratory in the Department of Entomology at Iowa State University of Science and Technology, Ames Iowa. Mosquito rearing was performed by established protocols that are maintained by the Medical Entomology Laboratory. Repellency bioassays were performed with adult female mosquitoes that were 5-7 days post-emergent. […] Mosquitoes, prior to testing, were held at 27° C., 80% relative humidity, and on a 16:8 hr light:dark photoperiod.
(§2) Repellency bioassays were performed using a static air repellency chamber, which has been described in various publications by the Pesticide Toxicology Laboratory at Iowa State University of Science and Technology, Ames, Iowa Briefly, a 9-cm×60-cm glass tube was used to monitor the distribution of mosquitoes at 15 min, 30 min, 60 min, 90 min, 120 min, and 150 min after introducing mosquitoes into the static air repellency chamber. Treated filter papers were treated with 1 mL of 0.5% solution in acetone of the terpenoid analogs created in the lab and were exposed to ambient air for 5 hours before they were introduced into the spatial chamber for testing. This is a slight modification of the method described in Example 2, so as to evaluate the residual repellent character of these compounds on a treated surface after 5 hours. One end of the spatial chamber contained a treated filter paper, whereas the other (untreated) end of the spatial chamber was not treated with compound. Controls contained filter papers treated with acetone, the solvent used to make the 0.5% solutions. Each end of the repellency chamber was secured with a 100-mm Petri dish using celluloid tape. After securing the petri dishes with corresponding treated or untreated filter papers to the spatial chamber, mosquitoes were anesthetized with carbon dioxide, and approximately 20 female mosquitoes were placed into each repellency chamber for one replicate. The opening of the spatial repellency chamber was secured with celluloid tape to prevent their escape. Chambers were oriented in opposite directions from the previous replicate to account for any directional effect. Four replicates were performed for data analysis for both the control and treatment groups.
Data for spatial repellency, the percentage repellency, is reported at each of the respective time points in the figures and tables mentioned below in this disclosure. The percentage spatial repellency is the examination of the distribution of mosquitoes and is calculated using the following equation: […]

[3] = test system: Northern house mosquitoes (Culex pipiens); assay: Short-term spatial repellency, static air repellency chamber; conditions: for pest or weed control at 0.5 %: Culex pipiens
Experimental: as §1, with “that emerged” for “that were”, “days previously.” for “days post-emergent.”
as §2, with “Treated filter papers were treated with 1 mL of 0.5% solution in acetone of the terpenoid analogs created in the lab and were exposed to ambient air for 5 hours before they were introduced into the spatial chamber for testing. This is a slight modification of the method described in Example 2, so as to evaluate the residual repellent character of these compounds on a treated surface after 5 hours.” left out
Data for spatial repellency, the percentage repellency, is reported at each of the respective time points in the figures and tables mentioned below. The percentage spatial repellency is the examination of the distribution of mosquitoes and is calculated using the following equation: […]

[4] = 0.25 h, 1 mL of 0.5% solution in acetone, air-dried 5 hours, 15 min, read-out: Long-term Percentage repellency 15 min
[5] = 1.5 h, 1 mL of 0.5% solution in acetone, air-dried 5 hours, 90 min, read-out: Long-term Percentage repellency 90 min
[6] = 2.5 h, 1 mL of 0.5% solution in acetone, air-dried 5 hours, 150 min, read-out: Long-term Percentage repellency 150 min
[7] = 0.25 h, filter paper, 1 mL of 0.5% solution in acetone, air-dried 15 min, 15 min after introduction, read-out: Short-term Percentage repellency 15 min
[8] = 1.5 h, filter paper, 1 mL of 0.5% solution in acetone, air-dried 15 min, 90 min, read-out: Short-term Percentage repellency 90 min
[9] = 2.5 h, filter paper, 1 mL of 0.5% solution in acetone, air-dried 15 min, 150 min, read-out: Short-term Percentage repellency 150 min

Structure (SMILES) | Minimum Effective Dosage, Subject 3 [1] [mg/cm^2] | Proportion to DEET [1] | Minimum Effective Dosage, Average [1] [mg/cm^2] | Minimum Effective Dosage, Subject 1 [1] [mg/cm^2] | Minimum Effective Dosage, Subject 2 [1] [mg/cm^2] | pest or weed control at 0.5 % [2, 4] [%] | pest or weed control at 0.5 % [2, 5] [%] | pest or weed control at 0.5 % [2, 6] [%] | pest or weed control at 0.5 % [3, 7] [%] | pest or weed control at 0.5 % [3, 8] [%] | pest or weed control at 0.5 % [3, 9] [%] | further results
O=C(C=Cc1ccccc1)OCCO [2-hydroxyethyl cinnamate] | 0.094 | – | – | – | – | – | – | – | – | – | – | –
CC(C)=CCC/C(C)=C/C(=O)OCCO [2-hydroxyethyl geranate] | 0.187 | 13.140 | 0.250 | 0.187 | 0.375 | – | – | – | – | – | – | –
CC(O)COC(=O)C=Cc1ccccc1 (stereo not drawn) [2-hydroxypropyl cinnamate] | 0.375 | 19.737 | 0.375 | – | 0.375 | – | – | – | – | – | – | –
CC(C)=CCC/C(C)=C/C(=O)OCC(C)O (stereo not drawn) [2-hydroxypropyl geranate] | 0.047 | 2.474 | 0.047 | 0.047 | 0.047 | – | – | – | – | – | – | –
O=C(C=Cc1ccccc1)OCCCO [3-hydroxypropyl cinnamate] | 0.750 | 52.632 | 1.000 | 0.750 | 1.500 | – | – | – | – | – | – | –
CC(C)=CCCC(C)CC(=O)OCCCO (stereo not drawn) [3-hydroxypropyl citronellate] | 0.023 | 3.702 | 0.070 | 0.094 | 0.094 | – | – | – | – | – | – | –
CC(C)=CCC/C(C)=C/C(=O)OCCCO [3-hydroxypropyl geranate] | 0.094 | 6.579 | 0.125 | 0.187 | 0.094 | – | – | – | – | – | – | –
CC(C)=CCCC(C)CCOC(=O)C(F)F (stereo not drawn) [Compound 2192, citronellyl difluoroacetate] | – | – | – | – | – | – | – | – | – | – | – | pest or weed control at 0.5 % ([2]; 0.25 h, read-out: Long-term Percentage repellency 15 min): 50%; pest or weed control at 0.5 % ([2]; 1.5 h, read-out: Long-term Percentage repellency 90 min): 72.5%; pest or weed control at 0.5 % ([2]; 2.5 h, read-out: Long-term Percentage repellency 150 min): 65%; pest or weed control at 0.5 % ([3]; 0.25 h, read-out: Short-term Percentage repellency 15 min): 42.5%; pest or weed control at 0.5 % ([3]; 1.5 h, read-out: Short-term Percentage repellency 90 min): 95%; pest or weed control at 0.5 % ([3]; 2.5 h, read-out: Short-term Percentage repellency 150 min): 95%
CC(C)=CCCC(C)CCOC(=O)C(C)C (stereo not drawn) [Compound 2204, citronellyl isobutyrate] | – | – | – | – | – | -5 | 7.5 | 10 | 25 | 80 | 90 | –
CC(C)=CCCC(C)CCOC(=O)C1CC(=O)C1 (stereo not drawn) [Compound 3067, citronellyl 3-oxocyclobutanecarboxylate] | – | – | – | – | – | 12.5 | 0 | 25 | 47.5 | 60 | 62.5 | –
CC(C)=CCCC(C)CCOC(=O)C1CC(C)C1 (stereo not drawn) [Compound 3068, citronellyl 3-methylcyclobutanecarboxylate] | – | – | – | – | – | 22.5 | 32.5 | 42.5 | 22.5 | 32.5 | 42.5 | –
CCN(CC)C(=O)c1cccc(C)c1 [DEET, N,N-diethyl-meta-toluaminde, reference compound] | 0.011 | 1.000 | 0.019 | 0.023 | 0.023 | – | – | – | – | – | – | Long-term percentage repellency 30 min ([2]; 0.5% solution, air-dried 5 hours, 30 minutes): 22.5%; Long-term Percentage repellency 15 min ([2]; 1 mL of 0.5% solution in acetone, air-dried 5 hours, 15 min): 32.5%±14.4; Short-term percentage repellency 30 min ([3]; 1 mL of 0.5% solution in acetone, 30 minutes): 53.3%; Short-term Percentage repellency 15 min ([3]; filter paper, 1 mL of 0.5% solution in acetone, air-dried 15 min, 15 min after introduction): 20%±15.3
CCN(CC)C(=O)c1cccc(C)c1 [N,N-diethyl-meta-toluamide (DEET), N,N-diethyl-meta-toluamide, reference compound] | – | – | – | – | – | 32.5 | 32.5 | 45 | 20 | 50 | 56.7 | –
CC(C)=CCCC(C)CCO (stereo not drawn) [citronellol, reference compound] | – | – | – | – | – | 30 | 25 | 25 | 32.5 | 80 | 87.5 | –
